From the supplement of paper PMC10307832

Key:
Assay in all cases: relative viability (nuclei count vs DMSO), 5 days (fraction); higher = more cells survive
201T = test system: 201T
Summary of the method: (§1)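 Relative viability was taken as the ratio of nuclei in treated wells to nuclei in vehicle wells. Lung cancer cell lines in 1536-well plates received compounds by pin tool one day after seeding, either one drug alone or a fixed anchor-drug dose plus five library-drug doses (not always all listed) in √10 steps. Nuclei were counted on 4× images after 5 days of treatment, and values are medians of duplicate plates.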

A-427 = test system: A-427
Summary of the method: as §1

BEN = test system: BEN
Summary of the method: as §1

COR-L23 = test system: COR-L23
Summary of the method: as §1

EKVX = test system: EKVX
Summary of the method: as §1

EMC-BAC-2 = test system: EMC-BAC-2
Summary of the method: as §1

EPLC-272H = test system: EPLC-272H
Summary of the method: as §1

HCC-44 = test system: HCC-44
Summary of the method: as §1

HCC-827 = test system: HCC-827
Summary of the method: as §1

LK-2 = test system: LK-2
Summary of the method: as §1

LXF-289 = test system: LXF-289
Summary of the method: as §1

NCI-H1650 = test system: NCI-H1650
Summary of the method: as §1

NCI-H1651 = test system: NCI-H1651
Summary of the method: as §1

NCI-H1793 = test system: NCI-H1793
Summary of the method: as §1

NCI-H1915 = test system: NCI-H1915
Summary of the method: as §1

NCI-H2087 = test system: NCI-H2087
Summary of the method: as §1

NCI-H2126 = test system: NCI-H2126
Summary of the method: as §1

NCI-H2347 = test system: NCI-H2347
Summary of the method: as §1

NCI-H441 = test system: NCI-H441
Summary of the method: as §1

NCI-H460 = test system: NCI-H460
Summary of the method: as §1

NCI-H596 = test system: NCI-H596
Summary of the method: as §1

SW 1573 = test system: SW 1573
Summary of the method: as §1

LCLC-103H = test system: LCLC-103H
Summary of the method: as §1

CCCCCCCCCCCC1=C(O)C(=O)C=C(O)C1=O [Embelin] + CC1(C)CCC(c2ccc(Cl)cc2)=C(CN2CCN(c3ccc(C(=O)NS(=O)(=O)c4ccc(N[C@H](CCN5CCOCC5)CSc5ccccc5)c(S(=O)(=O)C(F)(F)F)c4)cc3)CC2)C1 [Navitoclax] (partner 0.5 µM)
relative viability (201T; first compound 0.08 µM): 1.18
relative viability (201T; first compound 0.8 µM): 1.19
relative viability (201T; first compound 2.53 µM): 1.19
relative viability (201T; first compound 8 µM): 1.17
relative viability (A-427; first compound 0.08 µM): 0.975
relative viability (A-427; first compound 0.8 µM): 0.929
relative viability (A-427; first compound 2.53 µM): 0.939
relative viability (A-427; first compound 8 µM): 1
relative viability (BEN; first compound 0.08 µM): 0.0728
relative viability (BEN; first compound 0.8 µM): 0.0709
relative viability (BEN; first compound 2.53 µM): 0.0714
relative viability (BEN; first compound 8 µM): 0.0735
relative viability (COR-L23; first compound 0.08 µM): 0.991
relative viability (COR-L23; first compound 0.8 µM): 1.32
relative viability (COR-L23; first compound 2.53 µM): 1.19
relative viability (COR-L23; first compound 8 µM): 1.22
relative viability (EKVX; first compound 0.08 µM): 0.913
relative viability (EKVX; first compound 0.8 µM): 0.895
relative viability (EKVX; first compound 2.53 µM): 0.917
relative viability (EKVX; first compound 8 µM): 0.938
relative viability (EMC-BAC-2; first compound 0.08 µM): 1.17
relative viability (EMC-BAC-2; first compound 0.8 µM): 1.17
relative viability (EMC-BAC-2; first compound 2.53 µM): 1.33
relative viability (EMC-BAC-2; first compound 8 µM): 1.3
relative viability (EPLC-272H; first compound 0.08 µM): 1.07
relative viability (EPLC-272H; first compound 0.8 µM): 1.34
relative viability (EPLC-272H; first compound 2.53 µM): 1.21
relative viability (EPLC-272H; first compound 8 µM): 1.11
relative viability (HCC-44; first compound 0.08 µM): 0.903
relative viability (HCC-44; first compound 0.8 µM): 0.911
relative viability (HCC-44; first compound 2.53 µM): 1.07
relative viability (HCC-44; first compound 8 µM): 0.923
relative viability (HCC-827; first compound 0.08 µM): 1
relative viability (HCC-827; first compound 0.8 µM): 1.09
relative viability (HCC-827; first compound 2.53 µM): 1.03
relative viability (HCC-827; first compound 8 µM): 1.04
relative viability (LK-2; first compound 0.08 µM): 0.904
relative viability (LK-2; first compound 0.8 µM): 1.2
relative viability (LK-2; first compound 2.53 µM): 1.26
relative viability (LK-2; first compound 8 µM): 0.809
relative viability (LXF-289; first compound 0.08 µM): 1.01
relative viability (LXF-289; first compound 0.8 µM): 0.959
relative viability (LXF-289; first compound 2.53 µM): 1.03
relative viability (LXF-289; first compound 8 µM): 0.953
relative viability (NCI-H1650; first compound 0.08 µM): 1.27
relative viability (NCI-H1650; first compound 0.8 µM): 1.37
relative viability (NCI-H1650; first compound 2.53 µM): 1.57
relative viability (NCI-H1650; first compound 8 µM): 1.36
relative viability (NCI-H1651; first compound 0.08 µM): 0.926
relative viability (NCI-H1651; first compound 0.8 µM): 1.19
relative viability (NCI-H1651; first compound 2.53 µM): 1.02
relative viability (NCI-H1651; first compound 8 µM): 1.09
relative viability (NCI-H1793; first compound 0.08 µM): 0.461
relative viability (NCI-H1793; first compound 0.8 µM): 0.46
relative viability (NCI-H1793; first compound 2.53 µM): 0.498
relative viability (NCI-H1793; first compound 8 µM): 0.369
relative viability (NCI-H1915; first compound 0.08 µM): 0.822
relative viability (NCI-H1915; first compound 0.8 µM): 0.784
relative viability (NCI-H1915; first compound 2.53 µM): 0.793
relative viability (NCI-H1915; first compound 8 µM): 0.796
relative viability (NCI-H2087; first compound 0.08 µM): 0.892
relative viability (NCI-H2087; first compound 0.8 µM): 1.17
relative viability (NCI-H2087; first compound 2.53 µM): 0.93
relative viability (NCI-H2087; first compound 8 µM): 0.989
relative viability (NCI-H2126; first compound 0.08 µM): 0.879
relative viability (NCI-H2126; first compound 0.8 µM): 0.801
relative viability (NCI-H2126; first compound 2.53 µM): 0.848
relative viability (NCI-H2126; first compound 8 µM): 0.869
relative viability (NCI-H2347; first compound 0.08 µM): 0.746
relative viability (NCI-H2347; first compound 0.8 µM): 0.95
relative viability (NCI-H2347; first compound 2.53 µM): 1.01
relative viability (NCI-H2347; first compound 8 µM): 0.811
relative viability (NCI-H441; first compound 0.08 µM): 0.52
relative viability (NCI-H441; first compound 2.53 µM): 0.56
relative viability (NCI-H441; first compound 8 µM): 0.667
relative viability (NCI-H460; first compound 0.08 µM): 1.07
relative viability (NCI-H460; first compound 0.8 µM): 1.26
relative viability (NCI-H460; first compound 2.53 µM): 1.4
relative viability (NCI-H460; first compound 8 µM): 1.08
relative viability (NCI-H596; first compound 0.08 µM): 0.934
relative viability (NCI-H596; first compound 0.8 µM): 1.06
relative viability (NCI-H596; first compound 2.53 µM): 1.12
relative viability (NCI-H596; first compound 8 µM): 0.908
relative viability (SW 1573; first compound 0.08 µM): 0.973
relative viability (SW 1573; first compound 0.8 µM): 0.976
relative viability (SW 1573; first compound 2.53 µM): 1.02
relative viability (SW 1573; first compound 8 µM): 1.02

CCCCCCCCCCCC1=C(O)C(=O)C=C(O)C1=O [Embelin] + CC(C)C[C@H](NC(=O)[C@H](Cc1ccccc1)NC(=O)c1cnccn1)B(O)O [Bortezomib] (partner 0.002 µM)
relative viability (201T; first compound 0.08 µM): 1.06
relative viability (201T; first compound 0.8 µM): 1.17
relative viability (201T; first compound 2.53 µM): 1.09
relative viability (201T; first compound 8 µM): 1.09
relative viability (A-427; first compound 0.08 µM): 1.05
relative viability (A-427; first compound 0.8 µM): 1.11
relative viability (A-427; first compound 2.53 µM): 0.978
relative viability (A-427; first compound 8 µM): 0.904
relative viability (BEN; first compound 0.08 µM): 0.85
relative viability (BEN; first compound 0.8 µM): 1.04
relative viability (BEN; first compound 2.53 µM): 0.941
relative viability (BEN; first compound 8 µM): 0.899
relative viability (COR-L23; first compound 0.08 µM): 1
relative viability (COR-L23; first compound 0.8 µM): 1.1
relative viability (COR-L23; first compound 2.53 µM): 1.21
relative viability (COR-L23; first compound 8 µM): 1.21
relative viability (EKVX; first compound 0.08 µM): 0.976
relative viability (EKVX; first compound 0.8 µM): 0.936
relative viability (EKVX; first compound 2.53 µM): 1.14
relative viability (EKVX; first compound 8 µM): 1.13
relative viability (EMC-BAC-2; first compound 0.08 µM): 1.04
relative viability (EMC-BAC-2; first compound 0.8 µM): 1.18
relative viability (EMC-BAC-2; first compound 2.53 µM): 1.21
relative viability (EMC-BAC-2; first compound 8 µM): 1.09
relative viability (EPLC-272H; first compound 0.08 µM): 0.804
relative viability (EPLC-272H; first compound 0.8 µM): 1.07
relative viability (EPLC-272H; first compound 2.53 µM): 1.17
relative viability (EPLC-272H; first compound 8 µM): 0.86
relative viability (HCC-44; first compound 0.08 µM): 0.838
relative viability (HCC-44; first compound 0.8 µM): 0.865
relative viability (HCC-44; first compound 2.53 µM): 0.864
relative viability (HCC-44; first compound 8 µM): 0.897
relative viability (HCC-827; first compound 0.08 µM): 1.12
relative viability (HCC-827; first compound 0.8 µM): 1.07
relative viability (HCC-827; first compound 2.53 µM): 1.06
relative viability (HCC-827; first compound 8 µM): 1.17
relative viability (LCLC-103H; first compound 0.08 µM): 1
relative viability (LCLC-103H; first compound 0.8 µM): 1.14
relative viability (LCLC-103H; first compound 2.53 µM): 1.07
relative viability (LCLC-103H; first compound 8 µM): 0.885
relative viability (LXF-289; first compound 0.08 µM): 1.01
relative viability (LXF-289; first compound 0.8 µM): 1
relative viability (LXF-289; first compound 2.53 µM): 1
relative viability (LXF-289; first compound 8 µM): 1.05
relative viability (NCI-H1650; first compound 0.08 µM): 0.191
relative viability (NCI-H1650; first compound 0.8 µM): 0.189
relative viability (NCI-H1650; first compound 2.53 µM): 0.203
relative viability (NCI-H1650; first compound 8 µM): 0.213
relative viability (NCI-H1651; first compound 0.08 µM): 0.958
relative viability (NCI-H1651; first compound 0.8 µM): 0.92
relative viability (NCI-H1651; first compound 2.53 µM): 1.01
relative viability (NCI-H1651; first compound 8 µM): 1.02
relative viability (NCI-H1915; first compound 0.08 µM): 0.951
relative viability (NCI-H1915; first compound 0.8 µM): 1.02
relative viability (NCI-H1915; first compound 2.53 µM): 1.13
relative viability (NCI-H1915; first compound 8 µM): 0.998
relative viability (NCI-H2087; first compound 0.08 µM): 0.83
relative viability (NCI-H2087; first compound 0.8 µM): 0.807
relative viability (NCI-H2087; first compound 2.53 µM): 0.735
relative viability (NCI-H2087; first compound 8 µM): 0.935
relative viability (NCI-H2126; first compound 0.08 µM): 1.14
relative viability (NCI-H2126; first compound 0.8 µM): 1.11
relative viability (NCI-H2126; first compound 2.53 µM): 1.08
relative viability (NCI-H2126; first compound 8 µM): 1.19
relative viability (NCI-H2347; first compound 0.08 µM): 1.15
relative viability (NCI-H2347; first compound 0.8 µM): 1.1
relative viability (NCI-H2347; first compound 2.53 µM): 1.15
relative viability (NCI-H2347; first compound 8 µM): 1.05
relative viability (NCI-H441; first compound 0.08 µM): 0.448
relative viability (NCI-H441; first compound 2.53 µM): 0.251
relative viability (NCI-H441; first compound 8 µM): 0.475
relative viability (NCI-H460; first compound 0.08 µM): 0.961
relative viability (NCI-H460; first compound 0.8 µM): 1.27
relative viability (NCI-H460; first compound 2.53 µM): 1.38
relative viability (NCI-H460; first compound 8 µM): 1.19
relative viability (NCI-H596; first compound 0.08 µM): 0.955
relative viability (NCI-H596; first compound 0.8 µM): 1.17
relative viability (NCI-H596; first compound 2.53 µM): 1.3
relative viability (NCI-H596; first compound 8 µM): 0.87
relative viability (SW 1573; first compound 0.08 µM): 1.26
relative viability (SW 1573; first compound 0.8 µM): 1.29
relative viability (SW 1573; first compound 2.53 µM): 1.2
relative viability (SW 1573; first compound 8 µM): 1.27
